System: patients with first-line advanced pancreatic cancer
Test: randomized controlled Phase 2b clinical trial of TH-302 in combination with gemcitabine vs gemcitabine alone (NCT01144455)
Experimental: (§1) The clinical trial was conducted as a multi-center, randomized, controlled, dose-ranging, Phase 2b crossover clinical trial of TH-302 in combination with gemcitabine in patients with first line advanced pancreatic cancer. The primary endpoint of the trial was progression-free survival. The secondary endpoints were overall response rate, overall survival, change in CA 19-9 as well as various other efficacy and safety parameters. Tumor response was evaluated at baseline and every eight weeks using RECIST. Patients for whom monotherapy with gemcitabine is considered standard therapy were eligible for the trial. Patients were randomized equally into one of three cohorts: TH-302 at a dose of 240 mg/m^2 plus gemcitabine, TH-302 at a dose of 340 mg/m^2 plus gemcitabine, or gemcitabine alone. Patients who successfully completed six cycles of treatment without evidence of significant treatment-related toxicity or progressive disease could continue to receive treatment. If a patient experienced cancer progression on gemcitabine alone, the patient could cross over and be randomized into one of the TH-302 plus gemcitabine cohorts. The primary efficacy analysis was performed based upon 149 investigator-assessed PFS events and per protocol pooled the data from the two gemcitabine plus TH-302 dose groups in the comparison to gemcitabine alone.
In a separate Phase 2b trial, TH-302 was administered intravenously for 30 to 60 minutes on days 1, 8 and 15 of a 28 day cycle at either 240 mg/m^2 or 340 mg/m^2. Gemcitabine was dosed according to its package insert on days 1, 8 and 15 of a 28 day cycle. The 214 patient randomized controlled Phase 2b clinical trial compared the efficacy and safety of these two doses (240 mg/m^2 and 340 mg/m^2) of TH-302 in combination with gemcitabine to gemcitabine alone in patients with first-line advanced pancreatic cancer.
as §1, with “CA19-9” for “CA 19-9”, “over” for “over and be randomized”
This example is an update of the open-label, multicenter, randomized, Phase 2b study (NCT01144455) of two dose levels of TH-302 in combination with gemcitabine vs gemcitabine alone. The update was conducted in September 2012 and including a further follow-up of the data provided in Example 2.
Patients were stratified according to their disease stage (unresectable locally advanced vs distant metastases) and randomized as shown in FIG. 4.

In the case of `Nc1ccn([C@@H]2O[C@H](CO)[C@@H](O)C2(F)F)c(=O)n1` [gemcitabine], the response rate (gemcitabine alone arm, primary analysis) is reported as 12%, the “median progression-free survival (PFS)” value (gemcitabine alone, primary analysis) is reported as 3.6 months and the “Median time to CA 19-9 response, months (range)” value (human, in vivo) is reported as 1.8 (0.9-5.6) months. For the same compound, the “Patients with AEs, (%): Any rash” value (human, in vivo) was 16%, the “Patients with AEs, (%): Pyrexia” value (human, in vivo) was 23% and the “Patients with AEs, (%): Stomatitis” value (human, in vivo) was 7%. The “Mean CA 19-9 nadir change” value (patients with baseline > upper limit of normal and at least one post-baseline assessment) was −523 U/mL, the “CA 19-9 decrease >20%, (%)” value (percent of patients) was 68% and the “CA 19-9 decrease >50%, (%)” value (percent of patients) was 52%. For the same compound, the “CA 19-9 decrease >90%, (%)” value (percent of patients) was 16%, the 6-month survival rate (update September 2012) was 57% and the 12-month survival rate (update September 2012) was 26%. For the same compound, the “Disease control (CR, PR, plus stable disease)” value (update September 2012) was 67 % of patients, the “Grade 3/4 febrile neutropenia” value (update September 2012) was 0 % of patients and the “Objective best (unconfirmed) response (CR plus PR)” value (update September 2012) was 10 % of patients. The “Treatment-emergent Grade 3/4 neutropenia” value (update September 2012) was 16 % of patients, the “Treatment-emergent Grade 3/4 thrombocytopenia” value (update September 2012) was 10% and the “median PFS” value (update September 2012, FIG. 5A) was 3.6 months. The “Median OS” value (update September 2012, FIG. 5B) was 6.9 months.
`Cn1c(COP(=O)(NCCBr)NCCBr)cnc1[N+](=O)[O-]` [TH-302, (2-bromoethyl)({[(2-bromoethyl)amino][(2-nitro-3-methylimidazol-4-yl)methoxy]phosphoryl})-amine] was tested, and the “improvement in median PFS” value (TH-302 treated groups (combined) vs gemcitabine alone) was “about 2 months”, the “Skin and mucosal toxicities related to TH-302” value (in combination with gemcitabine) was “dose dependent but not dose limiting” and the “median PFS” value (two groups (combined) that received TH-302 at different doses plus gemcitabine, FIG. 2A) was 5.6 months.
